Experimental data: patent US6265376A, “Insecticidal plectoxins from plectreurys tristis” (Novartis AG, priority 1995, dated 2001)

Key:
S. exigua = assay: Injection of plectoxins into insect larvae (toxicity); type: in vivo, Spodoptera exigua
Protocol: (§1) Polypeptides isolated from or those showing substantial homology to those isolated from the venom of Plectreurys tristis are useful as insecticidal agents. In particular, they are useful insecticidal agents against insects of the order Lepidoptera, for example, Heliothis virescens, Autographa californica, and the insects of the genus Spodoptera. Both the purified plectoxin and viruses transformed to produce the plectoxin are assayed for bioactivity on larvae including: tobacco hornworms (Manduca sexta), tobacco budworms (Heliothis virescens) and beet armyworm (Spodoptera exizua).
Various plectoxins isolated from venom are injected into three different insect larvae. […] ED50 is the dose which is effective to paralyze 50% of the larvae at one hour. Values with an asterisk denote duplicate analysis with samples from different milking lots.

M. sexta = assay: as above; type: in vivo, Manduca sexta
Protocol: as §1
(§2) Venom from P. tristis is obtained from Spider Pharm, Black Canyon City, Az. Crude venom (approximately 200 μl per injection) is fractionated by reversed-phase liquid chromatography (LC) using the following conditions: a Perkin Elmer Model 410 Bio solvent delivery system; 5 ml injection loop; Hewlett Packard Model 1040M diode array detector at 220 and 280 nm; Aquapore ODS column, 22×1 cm (Brownlee Labs, Santa Clara, Calif.); 4.5 ml/min; acetonitrile (MeCN) in a constant 0.1% trifluoroacetic acid, 0% MeCN for 5 min, then linear gradient of 0 to 60% MeCN over 55 min. Similar fractions from several runs are combined and portions are removed for bioassays. […]

insects = assay: Insect toxicity (paralysis and/or death of test larvae), general statements; type: in vivo; conditions: injection of a number of different insects
Protocol: as §1

H. virescens = assay: Injection of plectoxins into insect larvae (toxicity); type: in vivo, Heliothis virescens
Protocol: as §1, §2

[1] = dose paralyzing 50% of larvae at one hour
[2] = lethal dose for 50% of treated larvae at 24 hours

In the case of “Plt-VI (AVKCIGWQETCNGNLPCCNECVMCECNIMGQNCRCNHPKATNECES)”, the ED50 (S. exigua; [1]) is reported as 0.32 µg/g, the LD50 (S. exigua; [2]) is reported as > 10 µg/g and the ED50 (M. sexta; [1]) is reported as 0.10 µg/g. For the same substance, the LD50 (M. sexta; [2]) was 0.15 µg/g, the “paralytic activity upon injection” value (insects) was “very high level of paralytic activity” and the ED50 (H. virescens; [1]) was 0.21 µg/g. The LD50 (H. virescens; [2]) was 1.2 µg/g.
